We go through one substance from patent publication US20100113584A1, “NOVEL USE OF (-)-EPIGALLOCATECHIN GALLATE” (priority 2007, published 2010).

For test [1], the system named is skeletal muscle fibers of medial gastrocnemius muscle. Briefly: Fiber type quantification in medial gastrocnemius muscle (immune-histochemistry, cytochrome oxidase staining). It is filed as in vivo, mice. The following applies: 2 months. The text has this:
(§1) Male C57BL/6J mice (5 weeks old) were purchased from Charles River (Sulzfeld, Germany). All mice initially received a high-fat diet (Kliba#2154, Provimi Kliba AG, Kaiseraugst, Switzerland) for 3 months. Thereafter, mice were randomly assigned to 5 groups. • Group 1: Low-fat diet, restricted to cage normal activity (Low fat sedentary, n=11) • Group 2: High-fat diet, restricted to cage normal activity (High fat sedentary, n=11) • Group 3: High-fat diet containing 0.5% w/w EGCG, restricted to cage normal activity (High fat+EGCG sedentary, n=10) • Group 4: High-fat diet, free access to running wheel (High fat exercise, n=10) • Group 5: High-fat diet containing 0.5% w/w EGCG, free access to running wheel (High fat+EGCG exercise, n=10) The duration of the treatment was 2 months. During this period all mice received food and water ad libitum. Mice in groups 4 and 5 had unlimited access to running wheels (Technical & Scientific Equipment GmbH, Bad Homburg, Germany). Daily voluntary running wheel activity was monitored. At the end of the treatment period, maximal running performance on a rodent treadmill (Technical & Scientific Equipment GmbH, Bad Homburg, Germany) was determined. The Gastrocnemius muscles were excised, frozen in liquid nitrogen and stored at −80° C. for later quantification of the fiber type. In the medial gastrocnemius, skeletal muscle fibers were quantified as Type I, Type IIA, Type D/X, Type IIB by immune-histochemistry utilizing fiber specific antibodies and by histochemistry using a cytochrome oxidase staining.

Test [2] deals with C57BL/6J mice. Kind of test: Daily voluntary running wheel activity of mice on high-fat diet. It is filed as in vivo. As to conditions: male C57BL/6J mice, high-fat diet containing 0.5% w/w EGCG, free access to running wheel, 2 months; P<0.004 vs high-fat diet alone.
From the text: as §1, with “During this period all mice received food and water ad libitum. Mice in groups 4 and 5 had unlimited access to running wheels (Technical & Scientific Equipment GmbH, Bad Homburg, Germany).” left out

Setting [3] is: High fat + EGCG (0.5% w/w) exercise (running wheel).
The mark [4] stands for this setting: High fat + EGCG (0.5% w/w) sedentary.

Take (−)-epigallocatechin gallate [EGCG]: in test [1] (setting [3]), the “Percentage of Type I fibers in medial gastrocnemius muscle” value was 12.8%, the “Percentage of Type IIa fibers in medial gastrocnemius muscle” value amounted to 54.2%, the “Percentage of Type IIb fibers in medial gastrocnemius muscle” value was determined as 27.8% and the “Percentage of Type IId/x fibers in medial gastrocnemius muscle” value was 5.1%. Moreover, in test [1] (setting [4]), the “Percentage of Type I fibers in medial gastrocnemius muscle” value is on record as 12.5%, the “Percentage of Type IIa fibers in medial gastrocnemius muscle” value is on record as 53.5%, the “Percentage of Type IIb fibers in medial gastrocnemius muscle” value came out at 28.8% and the “Percentage of Type IId/x fibers in medial gastrocnemius muscle” value was determined as 5.2%. In test [2], the “voluntary running wheel activity, average distance run per day” value is given as 3140.3±43.3 m per day.
